Source: BindingDB's records for patent US12084420 (Volastra Therapeutics, 2024)

biological target: T1, Kinesin-like protein KIF18A (Homo sapiens, UniProt Q8NI77); test: Inhibition of KIF18A Microtubule-Dependent ATPase Activity
T1 sequence (Q8NI77 whole entry): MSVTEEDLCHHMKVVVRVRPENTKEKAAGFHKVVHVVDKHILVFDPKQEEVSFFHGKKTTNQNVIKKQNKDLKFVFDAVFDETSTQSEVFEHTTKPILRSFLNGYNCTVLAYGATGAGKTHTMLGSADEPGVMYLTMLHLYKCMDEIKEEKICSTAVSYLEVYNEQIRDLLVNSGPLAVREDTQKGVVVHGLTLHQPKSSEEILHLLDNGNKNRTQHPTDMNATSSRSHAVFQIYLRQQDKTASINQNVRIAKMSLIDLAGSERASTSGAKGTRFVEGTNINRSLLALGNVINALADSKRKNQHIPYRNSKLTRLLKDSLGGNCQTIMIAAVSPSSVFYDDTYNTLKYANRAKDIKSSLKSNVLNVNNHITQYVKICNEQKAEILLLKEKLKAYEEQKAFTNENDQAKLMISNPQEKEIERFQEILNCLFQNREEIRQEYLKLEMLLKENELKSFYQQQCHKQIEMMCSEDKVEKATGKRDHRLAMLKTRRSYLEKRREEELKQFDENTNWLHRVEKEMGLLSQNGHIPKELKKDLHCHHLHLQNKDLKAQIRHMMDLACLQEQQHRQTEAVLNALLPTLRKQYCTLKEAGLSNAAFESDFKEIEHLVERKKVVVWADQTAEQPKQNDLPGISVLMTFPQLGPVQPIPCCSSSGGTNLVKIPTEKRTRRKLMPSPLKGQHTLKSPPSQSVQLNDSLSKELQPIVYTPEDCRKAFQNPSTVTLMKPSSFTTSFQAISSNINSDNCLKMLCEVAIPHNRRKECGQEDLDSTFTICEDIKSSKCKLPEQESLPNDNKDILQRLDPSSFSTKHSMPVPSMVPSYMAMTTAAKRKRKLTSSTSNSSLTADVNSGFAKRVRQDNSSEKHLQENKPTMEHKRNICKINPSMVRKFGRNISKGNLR
Method: Table 9: Test compounds were plated in a 3× dilution scheme in a 384-well plate. […] After incubation at room temperature for 30 min, 2.5 μL of microtubule mix was added [0.2 mg/mL pre-formed microtubules, 2.0 mM ATP in assay buffer], the plate was centrifuged for 30 s and then incubated at 28° C. for 60 min. 5 μL of Promega ADP-Glo Max R1 was added, the plate was centrifuged for 30 s, and the mixture incubated for 4 h at room temperature. 10 μL of Promega ADP-Glo Max R2 was added, the plate centrifuged for 30 s, and incubated for 60 min at room temperature. Luminescence was measured with an Envision plate reader, and % Inhibition was calculated for each well as: ([max−min]−[test−min])/[max−min]. IC50 values were calculated from concentration vs. % Inhibition data via a four-parameter variable slope model.

**Q.** How did the IC50 turn out when `O=C(c1cccc(S(=O)(=O)N2CCC(F)(F)CC2)c1)N1CC2(CCCC2)c2cc(NS(=O)(=O)CCO)ccc21` [US12084420, Compound 27] was run?
**A.** Its IC50 is 83 nM.

**Q.** For `C=C1CCC1NS(=O)(=O)c1cccc(C(=O)N2CC3(CCC4(CC4)CC3)c3cc(NS(C)(=O)=O)ccc32)c1` (configuration not stated) [US12084420, Compound 233], which IC50 is on record?
**A.** Its IC50 is 12 nM.

**Q.** Which IC50 does the source give for `CCC(C)(C)NS(=O)(=O)c1cccc(C(=O)N2CC3(CCC4(CC4)CC3)c3cc(NS(C)(=O)=O)ccc32)c1` [US12084420, Compound 266] here?
**A.** Its IC50 is 16 nM.

**Q.** How did the IC50 turn out when `CS(=O)(=O)Nc1ccc2c(c1)C1(CCC3(CC3)CC1)CN2C(=O)c1cccc(S(=O)(=O)N2CCC(C(F)F)C2)c1` (configuration not stated) [US12084420, Compound 247] was run?
**A.** Its IC50 is 21 nM.

**Q.** `CC(C)(C)NS(=O)(=O)c1cccc(C(=O)N2CC3(CCC4(CC4)CC3)c3cc(NS(=O)(=O)CCF)ccc32)c1` [US12084420, Compound 365] was tested. Which IC50 did it give?
**A.** The IC50 was 13 nM.

**Q.** For `CS(=O)(=O)Nc1ccc2c(c1)C1(CCC3(CC3)CC1)CN2C(=O)c1cccc(S(=O)(=O)NC2CC3CC3C2)c1` (configuration not stated) [US12084420, Compound 254], which IC50 is on record?
**A.** The IC50 was 10 nM.

**Q.** With `Cn1nc(S(=O)(=O)NC(C)(C)C)cc1C(=O)N1CC2(CCCCC2)c2cc(NS(C)(=O)=O)ccc21` [US12084420, Compound 59] as the compound, how does the IC50 read?
**A.** Its IC50 is 1000 nM.

**Q.** Which IC50 does the source give for `CC(C)(C)NS(=O)(=O)c1csc(C(=O)N2CC3(CCCCC3)c3cc(NS(C)(=O)=O)ccc32)c1` [US12084420, Compound 147] here?
**A.** Its IC50 is 43 nM.

**Q.** With `CS(=O)(=O)Nc1ccc2c(c1)C1(CCC3(CC3)CC1)CN2C(=O)c1cccc(/C=N/N2CCCCC2)c1` [US12084420, Compound 318] as the compound, how does the IC50 read?
**A.** The IC50 was 930 nM.

**Q.** How did the IC50 turn out when `CC(C)(C)NS(=O)(=O)c1cc(C(=O)N2CC3(CCC4(CC4)CC3)c3cc(NS(C)(=O)=O)ccc32)co1` [US12084420, Compound 319] was run?
**A.** Its IC50 is 1200 nM.

**Q.** `CC(C)(CO)NS(=O)(=O)c1cccc(C(=O)N2CC3(CCC4(CC4)CC3)c3cc(NS(C)(=O)=O)ccc32)c1` [US12084420, Compound 220] was tested. Which IC50 did it give?
**A.** Its IC50 is 16 nM.

**Q.** For `CC(C)(C)NS(=O)(=O)c1cc(C(=O)N2CC3(CCCCC3)c3cc(NS(C)(=O)=O)ccc32)cs1` [US12084420, Compound 231], which IC50 is on record?
**A.** Its IC50 is 8.7 nM.
